Measurements taken from BigSolDB 2.1.

Cc1ccc(S(=O)[O-])cc1.[Na+]
solubility (mole fraction)
Conditions	in DMF	in acetone	in acetonitrile	in ethanol	in isopropanol	in methanol	in n-butanol	in n-propanol	in water
278.15 K	0.00114	0.00039	5.8e-05	0.0031	0.00083	0.0234	0.00032	0.00301	0.0172
283.15 K	0.00169	0.00047	7.7e-05	0.00328	0.00086	0.0313	0.00035	0.00311	0.0201
288.15 K	0.0025	0.00057	9.9e-05	0.00337	0.00089	0.04	0.00039	0.00321	0.0234
293.15 K	0.00365	0.00067	0.00013	0.00345	0.00093	0.0511	0.00043	0.00331	0.0272
298.15 K	0.00525	0.0008	0.00016	0.00354	0.00097	0.0665	0.00047	0.00347	0.0314
303.15 K	0.00747	0.00094	0.00021	0.00363	0.001	0.0851	0.00052	0.00364	0.0358
308.15 K	0.0105	0.00111	0.00027	0.00373	0.00105	0.106	0.00057	0.00381	0.0404
313.15 K	0.0146	0.0013	0.00033	0.00383	0.00109	0.13	0.00063	0.00401	0.0453
318.15 K	0.02	0.00151	0.00041	0.00393	0.00113	0.156	0.00069	0.00421	0.0514
